Results published in patent US10844013B2, “Phenyl amino piperidine mTORC inhibitors and uses thereof” (Navitor Pharmaceuticals, Inc., priority 2016, dated 2020).
pIC50: −log10 of the molar value. Like-named read-outs stand apart in the source and are kept apart here.

Columns and labels:
[1] = system: pS6K1 (p-p70 S6 Kinase (Thr389)) in MCF-7 cells; test: AlphaLISA Ultra pS6K1 assay; type: cell-based; details: 2 hours compound incubation
How it was run: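 MCF-7 cells seeded 20–24 h, medium refreshed 2 h, then treated 2 h with compound (0.5% DMSO final). Lysates probed for Thr389-phosphorylated p70 S6K by AlphaLISA Ultra, 2 h acceptor then 2 h donor bead incubation, read on a multimode reader.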

[2] = system: pAKT (p-Akt 1/2/3 (Ser473)) in MCF-7 cells; test: AlphaLISA Ultra pAKT assay; type: cell-based
How it was run: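 MCF-7 cells seeded 20-24 h, medium refreshed for 2 h, then treated with compounds for 2 h at 0.5% final DMSO. Lysates frozen at −80 °C, then pAKT detected by AlphaLISA with acceptor and donor beads, 2 h each.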

[3] = Homo sapiens, MCF7, 2 hours compound incubation

SMILES	pIC50 ([1]; Homo sapiens, MCF7, 2 h)	pIC50 [2, 3]	pIC50 ([1]; read-out: pS6K1 in MCF7: IC50)	pIC50 ([2]; 2 hours compound incubation, read-out: pAKT in MCF7: IC50)
Cc1cc(C)c(C(=O)N2CCN(c3ccccn3)C(=O)C2)c(C)c1NC1CCN(c2ccc(F)cc2C#N)CC1 [I-143, 5-fluoro-2-[4-({2,4,6-trimethyl-3-[3-oxo-4-(pyridin-2-yl)piperazine-1-carbonyl]phenyl}amino)piperidin-1-yl] benzonitrile]	6.00 to 8.00	< 5.00	–	–
Cc1cc(C)c(C(=O)N2CCN(C(=O)OC(C)(C)C)[C@@H](CO)C2)cc1NC1CCN(c2ccccc2C#N)CC1 [I-7, (R)-tert-Butyl 4-(5-(1-(2-cyanophenyl)piperidin-4-ylamino)-2,4-dimethylbenzoyl)-2-(hydroxymethyl) piperazine-1-carboxylate]	5.52 to 6.00	< 5.00	–	–
Cc1cc(C)c(C(=O)N2CCN(c3cccnn3)CC2)cc1NC1CCN(c2ccccc2C#N)CC1 [I-70, 2-[4-({2,4-Dimethyl-5-[4-(pyridazin-3-yl)piperazine-1-carbonyl]phenyl}amino)piperidin-1-yl]benzonitrile]	5.30 to 5.52	< 5.00	–	–
Cc1cc(C)c(C(=O)N2CCN(c3ccccn3)[C@@H](C)C2)cc1NC1CCN(c2ccccc2C#N)CC1 [I-34, 2-[4-[2,4-Dimethyl-5-[(3S)-3-methyl-4-(2-pyridyl)piperazine-1-carbonyl]anilino]-1-piperidyl]benzonitrile]	5.52 to 6.00	< 5.00	–	–
Cc1cc(C)c(N(C)C2CCN(c3ccccc3C#N)CC2)cc1C(=O)N1CCN(c2ccccc2S(N)(=O)=O)CC1 [I-59]	5.30 to 5.52	< 5.00	–	–
Cc1cc(C)c(C(=O)N2CCN(c3ccccc3)C(CO)C2)cc1NC1CCN(c2ccccc2C#N)CC1 (centres unmarked) [I-63, 2-[4-({5-[3-(Hydroxymethyl)-4-phenylpiperazine-1-carbonyl]-2,4-dimethylphenyl}amino)piperidin-1-yl]benzonitrile]	6.00 to 8.00	< 5.00	–	–
Cc1cc(C)c(C(=O)N2CCN(c3ccccc3)C(C(=O)O)C2)cc1NC1CCN(c2ccccc2C#N)CC1 (centres unmarked) [I-39, 4-(5-{[1-(2-cyanophenyl)piperidin-4-yl]amino}-2,4-dimethylbenzoyl)-1-phenylpiperazine-2-carboxylic Acid]	< 5.00	< 5.00	–	–
Cc1cc(C)c(C(=O)N2CCN(c3ncccc3S(N)(=O)=O)CC2)c(C)c1N[C@@H]1CCN(c2ccccc2C#N)C[C@H]1C [I-180, 2-(4-(3-(((3R,4R)-1-(2-cyanophenyl)-3-methylpiperidin-4-yl)amino)-2,4,6-trimethylbenzoyl)piperazin-1-yl)pyridine-3-sulfonamide]	6.00 to 8.00	< 5.00	–	–
Cc1cc(C)c(C(=O)N2CCN(c3ccccc3C#N)CC2)cc1NC1CCCN(c2cccc(C#N)c2)CC1 (centres unmarked) [I-81, 2-[4-(5-{[1-(3-cyanophenyl)azepan-4-yl]amino}-2,4-dimethylbenzoyl)piperazin-1-yl]benzonitrile]	< 5.00	< 5.00	–	–
Cc1cc(C)c(C(=O)N2CCN(c3ccccc3)C(CO)C2)cc1NC1CCN(c2ccccc2)C1 (centres unmarked) [I-73, (4-{2,4-Dimethyl-5-[(1-phenylpyrrolidin-3-yl)amino]benzoyl}-1-phenylpiperazin-2-yl)methanol]	5.30 to 5.52	< 5.00	–	–
Cc1cc(C)c(N(C)C2CCN(c3ccccc3C#N)CC2)cc1C(=O)N1CCN(c2ccccc2C#N)CC1 [I-68, 2-[4-({5-[4-(2-cyanophenyl)piperazine-1-carbonyl]-2,4-dimethylphenyl}(methyl)amino)piperidin-1-yl]benzonitrile]	6.00 to 8.00	< 5.00	–	–
Cc1cc(C)c(C(=O)N2CCN(c3ccc(F)cn3)[C@H](CO)C2)cc1NC1CCN(c2ccccc2C#N)CC1 [I-117, (S)-2-(4-(5-(4-(5-fluoropyridin-2-yl)-3-(hydroxymethyl)piperazine-1-carbonyl)-2,4-dimethylphenylamino)piperidin-1-yl)benzonitrile]	6.00 to 8.00	< 5.00	–	–
Cc1cc(C)c(C(=O)N2CCN(c3ccccc3C#N)CC2)cc1NC1CCCN(c2ccc(C#N)cc2)CC1 (centres unmarked) [I-80, 2-[4-(5-{[1-(4-cyanophenyl)azepan-4-yl]amino}-2,4-dimethylbenzoyl)piperazin-1-yl]benzonitrile]	5.52 to 6.00	< 5.00	–	–
Cc1cccc(N2CCC(Nc3cc(C(=O)N4CCN(c5ccccc5S(N)(=O)=O)CC4)c(C)cc3C)CC2)c1 [I-129, 2-(4-(2,4-Dimethyl-5-(1-m-tolylpiperidin-4-ylamino)benzoyl)piperazin-1-yl)benzenesulfonamide]	5.52 to 6.00	< 5.00	–	–
Cc1ccc(C(=O)N2CCN(c3ccccc3)C(CO)C2)cc1NC1CCN(c2ccccc2C#N)CC1 (single isomer, unassigned) [I-84, 2-[4-({5-[(3R or S)-3-(hydroxymethyl)-4-phenylpiperazine-1-carbonyl]-2-methylphenyl}amino)piperidin-1-yl]benzonitrile]	–	< 5.00	5.52 to 6.00	–
Cc1nc(C)c(C(=O)N2CCN(c3ccccc3)[C@H](CO)C2)c(C)c1NC1CCN(c2ncccc2Cl)CC1 [I-165, [(2S)-4-(5-{[1-(3-chloropyridin-2-yl)piperidin-4-yl]amino}-2,4,6-trimethyl-pyridine-3-carbonyl)-1-phenyl-piperazin-2-yl]MeOH]	–	–	6.00 to 8.00	< 5.00
Cc1cc(C)c(C(=O)N2CCN(c3ccc(F)cc3)C(C(N)=O)C2)c(C)c1NC1CCN(c2cccnn2)CC1 (centres unmarked) [I-162, 1-(4-fluorophenyl)-4-(2,4,6-trimethyl-3-{[1-(pyridazin-3-yl)piperidin-4-yl]amino}benzoyl) piperazine-2-carboxamide]	6.00 to 8.00	< 5.00	–	–
Cc1cc(C)c(N(CC(N)=O)C2CCN(c3ccccc3C#N)CC2)cc1C(=O)N1CCN(c2ccccc2S(N)(=O)=O)CC1 [I-27, 2-((1-(2-Cyanophenyl)piperidin-4-yl)(2,4-dimethyl-5-(4-(2-sulfamoylphenyl)piperazine-1-carbonyl)phenyl)amino)acetamide]	5.52 to 6.00	< 5.00	–	–
CCN(c1cc(C(=O)N2CCN(c3ccccc3S(N)(=O)=O)CC2)c(C)cc1C)C1CCN(c2ccccc2C#N)CC1C (centres unmarked) [I-10, 2-(4-(5-((1-(2-Cyanophenyl)-3-methylpiperidin-4-yl)(ethyl)amino)-2,4-dimethylbenzoyl)piperazin-1-yl)benzenesulfonamide]	5.52 to 6.00	< 5.00	–	–
C=CCN(c1cc(C(=O)N2CCN(c3ccccc3S(N)(=O)=O)CC2)c(C)cc1C)C1CCN(c2ccccc2C#N)CC1 [I-46, 2-(4-(5-(Allyl(1-(2-cyanophenyl)piperidin-4-yl)amino)-2,4-dimethylbenzoyl)piperazin-1-yl)benzenesulfonamide]	5.52 to 6.00	< 5.00	–	–
Cc1cc(C)c(C(=O)N2CCN(c3cc(F)ccn3)[C@@H](CO)C2)cc1NC1CCN(c2ccccc2C#N)CC1 [I-99, (R)-2-(4-(5-(4-(4-Fluoropyridin-2-yl)-3-(hydroxymethyl)piperazine-1-carbonyl)-2,4-dimethylphenylamino)piperidin-1-yl)benzonitrile]	5.52 to 6.00	< 5.00	–	–
Cc1cc(C)c(C(=O)N2CCN(c3ccccc3)[C@@H](C)C2)cc1NC1CCN(c2ccccc2C#N)CC1 [I-33, (S)-2-(4-(2,4-Dimethyl-5-(3-methyl-4-phenylpiperazine-1-carbonyl)phenylamino)piperidin-1-yl)benzonitrile]	5.00 to 5.30	< 5.00	–	–
